Assay in all cases: biochemical
Test [1] concerns the target FLT1 (Homo sapiens, UniProt P17948).
Test [2] concerns the target TAF1 (Homo sapiens, UniProt P21675).
For test [3], the target named is CaMK1d (Homo sapiens, UniProt Q8IU85).
Test [4] deals with T1, EphB1 (Homo sapiens, UniProt P54762).
T1 sequence (P54762 1-984): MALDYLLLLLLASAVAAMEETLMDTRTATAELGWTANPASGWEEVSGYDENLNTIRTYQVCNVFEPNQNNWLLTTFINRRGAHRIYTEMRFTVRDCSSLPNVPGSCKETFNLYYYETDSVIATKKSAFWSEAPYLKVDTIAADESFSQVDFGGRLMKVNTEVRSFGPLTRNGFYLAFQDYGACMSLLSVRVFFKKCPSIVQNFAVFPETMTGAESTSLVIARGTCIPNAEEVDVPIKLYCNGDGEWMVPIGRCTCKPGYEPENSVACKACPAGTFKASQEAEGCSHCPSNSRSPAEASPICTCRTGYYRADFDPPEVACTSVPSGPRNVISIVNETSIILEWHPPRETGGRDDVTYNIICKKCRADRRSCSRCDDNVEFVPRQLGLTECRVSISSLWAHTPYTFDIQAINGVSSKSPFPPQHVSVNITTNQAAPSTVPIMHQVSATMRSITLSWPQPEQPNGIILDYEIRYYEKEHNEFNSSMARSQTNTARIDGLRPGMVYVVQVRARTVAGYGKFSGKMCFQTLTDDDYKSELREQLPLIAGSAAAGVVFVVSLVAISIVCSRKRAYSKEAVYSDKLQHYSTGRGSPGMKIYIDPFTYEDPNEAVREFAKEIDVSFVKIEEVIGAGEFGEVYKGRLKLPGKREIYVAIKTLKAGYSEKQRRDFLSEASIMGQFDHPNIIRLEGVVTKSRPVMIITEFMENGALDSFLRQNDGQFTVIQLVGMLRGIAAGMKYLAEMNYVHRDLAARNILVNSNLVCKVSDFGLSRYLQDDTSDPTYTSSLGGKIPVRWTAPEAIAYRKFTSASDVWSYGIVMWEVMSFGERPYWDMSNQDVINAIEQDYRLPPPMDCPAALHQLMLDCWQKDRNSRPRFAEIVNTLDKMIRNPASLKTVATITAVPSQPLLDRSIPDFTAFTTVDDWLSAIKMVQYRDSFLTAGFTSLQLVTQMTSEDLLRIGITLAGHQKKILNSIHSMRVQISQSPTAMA

Test [5] has as its target GPRK5 (Homo sapiens, UniProt P34947).
Test [6] has as its target CHK2 (Homo sapiens, UniProt O96017).
Test [7] addresses DYRK1A (Homo sapiens, UniProt Q13627).
For test [8], the target named is CLK1 (Homo sapiens, UniProt P49759).
Sequence of CLK1 (P49759 whole entry): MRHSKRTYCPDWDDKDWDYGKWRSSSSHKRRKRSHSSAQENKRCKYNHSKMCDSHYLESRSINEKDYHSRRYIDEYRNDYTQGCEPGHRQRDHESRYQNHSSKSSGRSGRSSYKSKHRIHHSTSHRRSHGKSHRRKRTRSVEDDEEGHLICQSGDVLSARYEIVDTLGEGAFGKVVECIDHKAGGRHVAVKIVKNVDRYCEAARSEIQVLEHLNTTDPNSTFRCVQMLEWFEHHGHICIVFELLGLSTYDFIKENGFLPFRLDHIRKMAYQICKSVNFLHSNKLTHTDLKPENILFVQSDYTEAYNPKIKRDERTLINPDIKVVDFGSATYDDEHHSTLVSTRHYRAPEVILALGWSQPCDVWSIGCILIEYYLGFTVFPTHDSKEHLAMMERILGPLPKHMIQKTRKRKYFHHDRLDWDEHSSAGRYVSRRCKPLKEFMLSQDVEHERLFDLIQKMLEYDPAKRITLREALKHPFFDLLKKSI
Test [9] concerns the target CaMK2b (Homo sapiens, UniProt Q13554).
Test [10] addresses FGFR2 (Homo sapiens, UniProt P21802).
Test [11] concerns the target JNK2 (Homo sapiens, UniProt P45984).
Test [12] has as its target T2, NEK2 (Homo sapiens, UniProt P51955).
T2 sequence (P51955 1-445): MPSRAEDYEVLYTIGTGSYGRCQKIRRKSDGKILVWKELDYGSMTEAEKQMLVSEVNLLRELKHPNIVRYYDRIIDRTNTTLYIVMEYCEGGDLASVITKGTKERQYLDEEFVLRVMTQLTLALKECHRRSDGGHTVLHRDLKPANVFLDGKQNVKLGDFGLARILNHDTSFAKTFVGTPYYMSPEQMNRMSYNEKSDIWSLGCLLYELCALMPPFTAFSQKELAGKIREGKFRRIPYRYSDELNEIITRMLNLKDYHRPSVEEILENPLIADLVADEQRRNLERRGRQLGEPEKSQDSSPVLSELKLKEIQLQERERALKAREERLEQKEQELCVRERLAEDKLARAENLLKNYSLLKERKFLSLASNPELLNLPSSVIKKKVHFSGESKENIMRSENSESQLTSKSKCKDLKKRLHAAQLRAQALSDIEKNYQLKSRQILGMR

In test [13] the target is T3, DRAK2 (Homo sapiens, UniProt O94768).
T3 sequence (O94768 1-372): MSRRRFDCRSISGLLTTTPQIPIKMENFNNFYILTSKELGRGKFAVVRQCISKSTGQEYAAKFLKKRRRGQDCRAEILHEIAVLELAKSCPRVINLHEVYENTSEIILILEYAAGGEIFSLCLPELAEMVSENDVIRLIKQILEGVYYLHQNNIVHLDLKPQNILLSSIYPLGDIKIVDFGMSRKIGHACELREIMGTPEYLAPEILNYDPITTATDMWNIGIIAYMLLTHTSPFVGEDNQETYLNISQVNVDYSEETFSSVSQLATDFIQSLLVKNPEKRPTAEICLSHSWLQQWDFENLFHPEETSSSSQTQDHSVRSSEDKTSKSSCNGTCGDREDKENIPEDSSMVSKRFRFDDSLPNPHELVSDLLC

Where two headings read alike, the source gives them in different places.

Sequence of JNK2 (P45984 whole entry): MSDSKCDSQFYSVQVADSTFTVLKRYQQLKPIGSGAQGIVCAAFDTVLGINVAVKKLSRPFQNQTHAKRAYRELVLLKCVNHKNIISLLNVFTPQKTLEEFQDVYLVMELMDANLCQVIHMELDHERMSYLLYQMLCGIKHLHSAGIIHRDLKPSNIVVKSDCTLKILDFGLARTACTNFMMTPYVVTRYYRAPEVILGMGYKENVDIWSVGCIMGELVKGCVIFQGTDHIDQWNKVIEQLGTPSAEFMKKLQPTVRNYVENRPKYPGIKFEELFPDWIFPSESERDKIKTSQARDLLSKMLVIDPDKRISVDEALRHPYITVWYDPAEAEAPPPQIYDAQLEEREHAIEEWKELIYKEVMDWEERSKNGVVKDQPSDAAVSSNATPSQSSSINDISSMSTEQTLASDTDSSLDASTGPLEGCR
Sequence of FLT1 (P17948 whole entry): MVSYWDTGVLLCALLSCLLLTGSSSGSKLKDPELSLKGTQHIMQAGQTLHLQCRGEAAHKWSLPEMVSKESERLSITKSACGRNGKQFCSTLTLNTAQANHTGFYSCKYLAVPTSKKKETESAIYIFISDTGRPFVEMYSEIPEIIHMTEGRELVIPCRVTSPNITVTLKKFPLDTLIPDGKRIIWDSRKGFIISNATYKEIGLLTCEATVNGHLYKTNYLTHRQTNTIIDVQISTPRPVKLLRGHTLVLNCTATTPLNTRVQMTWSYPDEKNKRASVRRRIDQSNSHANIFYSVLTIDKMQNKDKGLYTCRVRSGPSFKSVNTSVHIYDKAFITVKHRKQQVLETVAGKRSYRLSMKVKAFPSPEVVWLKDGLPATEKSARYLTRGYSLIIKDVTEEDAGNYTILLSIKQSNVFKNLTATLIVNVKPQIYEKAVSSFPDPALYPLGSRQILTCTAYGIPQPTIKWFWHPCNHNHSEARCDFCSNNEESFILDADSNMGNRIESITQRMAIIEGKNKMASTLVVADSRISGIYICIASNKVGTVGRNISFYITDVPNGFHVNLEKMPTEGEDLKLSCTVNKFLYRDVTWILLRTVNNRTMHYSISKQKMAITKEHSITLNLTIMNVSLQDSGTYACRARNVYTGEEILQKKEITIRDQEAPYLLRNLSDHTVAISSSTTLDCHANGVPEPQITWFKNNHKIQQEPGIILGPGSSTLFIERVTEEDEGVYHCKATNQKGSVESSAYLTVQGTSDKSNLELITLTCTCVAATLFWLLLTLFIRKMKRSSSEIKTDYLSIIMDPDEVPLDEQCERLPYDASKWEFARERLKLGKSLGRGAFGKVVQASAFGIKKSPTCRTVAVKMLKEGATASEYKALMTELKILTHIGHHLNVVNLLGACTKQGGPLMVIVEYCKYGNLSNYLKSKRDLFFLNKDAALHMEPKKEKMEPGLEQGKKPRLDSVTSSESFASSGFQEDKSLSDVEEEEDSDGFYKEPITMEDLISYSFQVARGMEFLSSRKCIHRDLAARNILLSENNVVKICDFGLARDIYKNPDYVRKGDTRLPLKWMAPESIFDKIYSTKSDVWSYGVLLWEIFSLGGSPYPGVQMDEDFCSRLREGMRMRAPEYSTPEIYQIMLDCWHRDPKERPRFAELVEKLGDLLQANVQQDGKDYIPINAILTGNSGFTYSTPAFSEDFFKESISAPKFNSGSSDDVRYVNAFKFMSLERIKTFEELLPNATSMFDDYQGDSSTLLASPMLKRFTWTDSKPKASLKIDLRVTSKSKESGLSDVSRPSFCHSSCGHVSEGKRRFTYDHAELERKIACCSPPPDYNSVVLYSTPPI
Sequence of TAF1 (P21675 whole entry): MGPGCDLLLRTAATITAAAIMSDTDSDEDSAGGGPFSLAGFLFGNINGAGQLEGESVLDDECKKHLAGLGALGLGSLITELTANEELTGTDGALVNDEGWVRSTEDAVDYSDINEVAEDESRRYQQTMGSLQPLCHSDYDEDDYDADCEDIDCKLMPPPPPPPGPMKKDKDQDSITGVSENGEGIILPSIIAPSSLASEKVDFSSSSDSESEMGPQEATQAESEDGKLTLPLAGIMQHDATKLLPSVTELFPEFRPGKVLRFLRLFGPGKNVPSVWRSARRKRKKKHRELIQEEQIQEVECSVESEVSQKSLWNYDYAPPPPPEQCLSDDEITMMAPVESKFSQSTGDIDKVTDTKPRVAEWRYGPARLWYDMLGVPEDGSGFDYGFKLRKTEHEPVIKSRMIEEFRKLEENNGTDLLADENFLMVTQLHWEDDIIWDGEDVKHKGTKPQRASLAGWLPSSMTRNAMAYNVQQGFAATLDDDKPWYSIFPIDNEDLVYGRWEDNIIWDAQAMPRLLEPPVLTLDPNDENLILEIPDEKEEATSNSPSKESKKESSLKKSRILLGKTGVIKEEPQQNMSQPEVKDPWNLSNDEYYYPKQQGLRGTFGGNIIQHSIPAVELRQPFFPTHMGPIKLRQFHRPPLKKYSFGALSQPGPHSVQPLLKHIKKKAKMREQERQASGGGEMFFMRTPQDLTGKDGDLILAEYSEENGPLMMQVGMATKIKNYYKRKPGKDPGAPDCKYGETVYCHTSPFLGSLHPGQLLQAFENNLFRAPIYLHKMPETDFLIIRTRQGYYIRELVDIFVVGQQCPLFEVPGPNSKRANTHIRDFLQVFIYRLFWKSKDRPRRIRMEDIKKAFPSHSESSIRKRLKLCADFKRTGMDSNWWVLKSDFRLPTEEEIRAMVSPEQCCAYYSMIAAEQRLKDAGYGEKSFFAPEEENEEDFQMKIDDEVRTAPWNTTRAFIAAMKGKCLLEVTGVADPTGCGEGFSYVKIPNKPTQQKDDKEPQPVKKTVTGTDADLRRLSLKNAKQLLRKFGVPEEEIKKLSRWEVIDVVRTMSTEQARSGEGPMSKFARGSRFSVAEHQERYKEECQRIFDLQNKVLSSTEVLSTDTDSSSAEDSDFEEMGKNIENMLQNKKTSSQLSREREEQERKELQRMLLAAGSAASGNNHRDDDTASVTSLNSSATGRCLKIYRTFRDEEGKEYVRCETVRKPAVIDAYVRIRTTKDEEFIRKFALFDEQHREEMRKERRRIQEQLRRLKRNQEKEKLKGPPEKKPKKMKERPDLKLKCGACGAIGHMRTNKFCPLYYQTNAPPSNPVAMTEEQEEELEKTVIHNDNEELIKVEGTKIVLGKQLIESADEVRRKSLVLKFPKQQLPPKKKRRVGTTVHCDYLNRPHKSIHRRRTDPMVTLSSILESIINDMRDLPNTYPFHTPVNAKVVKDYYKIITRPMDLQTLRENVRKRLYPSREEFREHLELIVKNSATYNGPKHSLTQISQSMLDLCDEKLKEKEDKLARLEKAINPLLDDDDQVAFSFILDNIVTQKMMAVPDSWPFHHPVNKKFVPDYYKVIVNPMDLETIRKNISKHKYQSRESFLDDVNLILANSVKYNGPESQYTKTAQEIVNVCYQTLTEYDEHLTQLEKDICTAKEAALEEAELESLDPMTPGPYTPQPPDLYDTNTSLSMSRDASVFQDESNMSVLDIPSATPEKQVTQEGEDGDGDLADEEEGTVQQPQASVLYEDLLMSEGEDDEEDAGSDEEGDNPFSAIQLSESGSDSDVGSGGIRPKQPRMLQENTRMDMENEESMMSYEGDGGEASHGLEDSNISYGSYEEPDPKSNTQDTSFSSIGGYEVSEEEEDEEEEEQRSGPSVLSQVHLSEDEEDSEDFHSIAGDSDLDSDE
Sequence of CaMK2b (Q13554 whole entry): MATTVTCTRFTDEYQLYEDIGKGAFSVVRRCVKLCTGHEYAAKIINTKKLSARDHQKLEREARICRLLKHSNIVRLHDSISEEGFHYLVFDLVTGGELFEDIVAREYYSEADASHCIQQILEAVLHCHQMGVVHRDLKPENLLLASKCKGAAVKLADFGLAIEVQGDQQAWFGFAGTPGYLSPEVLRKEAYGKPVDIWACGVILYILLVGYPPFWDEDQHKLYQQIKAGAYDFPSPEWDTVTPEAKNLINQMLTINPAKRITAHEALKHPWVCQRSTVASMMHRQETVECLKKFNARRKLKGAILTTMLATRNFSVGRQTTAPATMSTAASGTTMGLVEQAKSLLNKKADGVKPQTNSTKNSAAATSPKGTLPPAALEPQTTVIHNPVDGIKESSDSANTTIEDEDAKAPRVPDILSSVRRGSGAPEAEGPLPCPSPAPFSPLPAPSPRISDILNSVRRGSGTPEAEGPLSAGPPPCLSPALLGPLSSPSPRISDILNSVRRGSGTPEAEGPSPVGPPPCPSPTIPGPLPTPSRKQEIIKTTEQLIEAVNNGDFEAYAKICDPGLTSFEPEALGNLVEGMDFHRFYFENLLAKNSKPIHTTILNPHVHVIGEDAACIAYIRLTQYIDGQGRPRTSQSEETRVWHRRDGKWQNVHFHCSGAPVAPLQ

Consider `CNc1ncc2cc(-c3cc(Cl)ccc3Cl)c(=O)n(CCCCN)c2n1` [compound 8, 8-(4-Aminobutyl)-6-(2,5-dichlorophenyl)-2-(methylamino)pyrido[2,3-d]pyrimidin-7(8H)-one], for which the ΔTm at 10 µM in test [1] (read-out: dTm 8) was 6 °C; in [2] (read-out: dTm 8), -0.7 °C; in test [3] (read-out: dTm 8), 2.4 °C; in test [4] (read-out: dTm 8) it was 5.3 °C; in [5] (read-out: dTm 8), 0.6 °C; in test [6] (read-out: dTm 8), 0.4 °C. For the same compound, the ΔTm at 10 µM in test [7] (read-out: dTm 8) was -0.5 °C; in test [8] (read-out: dTm 8), 0.6 °C; in test [9] (read-out: dTm 8), 0.2 °C; in test [10] (read-out: dTm 8), 4.1 °C; in test [11] (read-out: dTm 8), 1.2 °C; in [12] (read-out: dTm 8), 1.9 °C. In addition, in test [13] (read-out: dTm 8), the ΔTm at 10 µM stood at 0.1 °C.

Take `CNc1ncc2cc(-c3cc(Cl)ccc3Br)c(=O)n(CCCCN)c2n1` [compound 10, 8-(4-Aminobutyl)-6-(2-bromo-5-chlorophenyl)-2-(methylamino)pyrido[2,3-d]pyrimidin-7(8H)-one]: the ΔTm at 10 µM is 5 °C in [1] (read-out: dTm 10); -0.8 °C in test [2] (read-out: dTm 10); 2 °C in test [3] (read-out: dTm 10); 5.5 °C in test [4] (read-out: dTm 10); 0.6 °C in test [5] (read-out: dTm 10); 0.2 °C in [6] (read-out: dTm 10). Further, the ΔTm at 10 µM in [7] (read-out: dTm 10) was -0.6 °C; in [8] (read-out: dTm 10), 0.4 °C; in [9] (read-out: dTm 10), 0.3 °C; in [10] (read-out: dTm 10), 3.3 °C; in [11] (read-out: dTm 10), 0.9 °C; in test [12] (read-out: dTm 10) it was 2.1 °C. Moreover, in test [13] (read-out: dTm 10), the ΔTm at 10 µM is 0.1 °C.

As for `CNc1ncc2cc(-c3cc(Br)ccc3Br)c(=O)n(CCCCN)c2n1` [compound 11, 8-(4-Aminobutyl)-6-(2,5-dibromophenyl)-2-(methylamino)pyrido[2,3-d]pyrimidin-7(8H)-one], the ΔTm at 10 µM was 5.8 °C in test [1] (read-out: dTm 11); -0.8 °C in test [2] (read-out: dTm 11); 2.3 °C in [3] (read-out: dTm 11); 4.7 °C in [4] (read-out: dTm 11); 0.7 °C in test [5] (read-out: dTm 11); 0.4 °C in test [6] (read-out: dTm 11). The ΔTm at 10 µM is -0.3 °C in test [7] (read-out: dTm 11); 0.4 °C in test [8] (read-out: dTm 11); 0.3 °C in test [9] (read-out: dTm 11); 3.4 °C in [10] (read-out: dTm 11); 1.2 °C in test [11] (read-out: dTm 11); 1.7 °C in [12] (read-out: dTm 11). Further, in test [13] (read-out: dTm 11), the ΔTm at 10 µM is 0 °C.

As to `CNc1ncc2cc(-c3cc(C(F)(F)F)ccc3Cl)c(=O)n(CCCCN)c2n1` [compound 9, 8-(4-Aminobutyl)-6-(2-chloro-5-(trifluoromethyl)phenyl)-2-(methylamino)pyrido[2,3-d]pyrimidin-7(8H)-one], the ΔTm at 10 µM in test [1] (read-out: dTm 9) is 5.3 °C; in test [2] (read-out: dTm 9), -0.7 °C; in [3] (read-out: dTm 9), 2.3 °C; in test [4] (read-out: dTm 9), 3.3 °C; in [5] (read-out: dTm 9), 0.3 °C; in [6] (read-out: dTm 9) it was 0.5 °C. In addition, the ΔTm at 10 µM was -0.5 °C in [7] (read-out: dTm 9); 0.4 °C in test [8] (read-out: dTm 9); 0.1 °C in test [9] (read-out: dTm 9); 2.1 °C in test [10] (read-out: dTm 9); 1 °C in [11] (read-out: dTm 9); 1.3 °C in test [12] (read-out: dTm 9). Moreover, the ΔTm at 10 µM in test [13] (read-out: dTm 9) stood at 0 °C.

On to `CNc1ncc2cc(-c3cc(F)c(-c4cccc(C)n4)cc3F)c(=O)n(CCCCN)c2n1` [compound 12, 8-(4-Aminobutyl)-6-(2,5-difluoro-4-(6-methylpyridin-2-yl)phenyl)-2-(methylamino)pyrido[2,3-d]pyrimidin-7(8H)-one], for which the ΔTm at 10 µM was 2.8 °C in [1] (read-out: dTm 12); 0.4 °C in test [2] (read-out: dTm 12); 3.1 °C in [3] (read-out: dTm 12); 3.5 °C in test [4] (read-out: dTm 12); -0.4 °C in test [5] (read-out: dTm 12); 3.3 °C in [6] (read-out: dTm 12). Also, the ΔTm at 10 µM is 0.1 °C in [7] (read-out: dTm 12); -0.1 °C in [8] (read-out: dTm 12); -0.4 °C in [9] (read-out: dTm 12); 1.1 °C in [10] (read-out: dTm 12); 0.2 °C in [11] (read-out: dTm 12); 7.2 °C in [12] (read-out: dTm 12). For the same compound, in test [13] (read-out: dTm 12), the ΔTm at 10 µM was determined as 5.7 °C.

Values taken from doi:10.1101/2023.03.24.534094v2 (biorxiv, 2023).
